Reference: PubChem BioAssay AID330 (DTP/NCI, 2004)
Where “and” joins values, the source holds several entries; their conditions need not be identical. Identical values can stand only once. Toxic doses and inconclusive results are not listed. Rule for the calls: active = survival T/C of 150% or more; inactive = T/C below 125% in these data.

Test system: P388 leukemia ip, CD2F1 mice, survival T/C
Assay: NCI In Vivo Anticancer Drug Screen. Data for tumor model P388 Leukemia (intraperitoneal) in CD2F1 (CDF1) mice
Conditions: endpoint: median survival time, higher = longer survival
Outline: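 Mice carrying the transplanted tumor received test compound or vehicle. Survival was recorded in each group, and the value is the treated-group measurement divided by that of the vehicle-treated control group.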

[1] = dose: 50.0 mg/kg/injection, schedule: Q01DX005 (ip), vehicle: Klucel (hydroxypropylcellulose) (HPC)
[2] = dose: 25.0 mg/kg/injection, schedule: Q01DX009 (ip), vehicle: saline with Tween-80
[3] = dose: 50.0 mg/kg/injection, schedule: Q01DX009 (ip), vehicle: saline with Tween-80
[4] = dose: 100.0 mg/kg/injection, schedule: Q01DX009 (ip), vehicle: saline with Tween-80
[5] = dose: 50.0 mg/kg/injection, schedule: Q01DX005 (ip), vehicle: saline with Tween-80

Measured: T/C

CC1NCCc2c1[nH]c1ccccc21 (stereo not drawn)
inactive: dose: 12.5 mg/kg/injection, schedule: Q01DX005 (ip), vehicle: Klucel (hydroxypropylcellulose) (HPC) 101 % of control | dose: 25.0 mg/kg/injection, schedule: Q01DX005 (ip), vehicle: Klucel (hydroxypropylcellulose) (HPC) 97 % of control | [1] 101 % of control and 97 % of control

C/C(=C/C(=O)O)c1ccc([N+](=O)[O-])cc1
inactive: dose: 60.0 mg/kg/injection, schedule: Q01DX005 (ip), vehicle: saline with Tween-80 94 % of control | dose: 120.0 mg/kg/injection, schedule: Q01DX005 (ip), vehicle: saline with Tween-80 100 % of control | dose: 240.0 mg/kg/injection, schedule: Q01DX005 (ip), vehicle: saline with Tween-80 101 % of control

C=C(C)C1C2CC3(C)C4(CO4)C4OC4C3(O)C1C(=O)O2 (stereo not drawn)
inactive: dose: 0.31 mg/kg/injection, schedule: Q01DX005 (ip), vehicle: Klucel (hydroxypropylcellulose) (HPC) 97 % of control | dose: 0.62 mg/kg/injection, schedule: Q01DX005 (ip), vehicle: Klucel (hydroxypropylcellulose) (HPC) 100 % of control | dose: 1.25 mg/kg/injection, schedule: Q01DX005 (ip), vehicle: Klucel (hydroxypropylcellulose) (HPC) 102 % of control

C[CH](C)[Ge]([CH3])([CH](C)C)[CH](C)C
inactive: dose: 50.0 mg/kg/injection, schedule: Q01DX009 (ip), vehicle: saline 100 % of control | dose: 100.0 mg/kg/injection, schedule: Q01DX009 (ip), vehicle: saline 93 % of control | dose: 200.0 mg/kg/injection, schedule: Q01DX009 (ip), vehicle: saline 110 % of control

CCc1c(-c2ccccc2)[nH]c2ccccc12
inactive: [2] 105 % of control | dose: 50.0 mg/kg/injection, schedule: Q01DX009 (ip), vehicle: saline + alcohol 116 % of control | [3] 100 % of control | dose: 100.0 mg/kg/injection, schedule: Q01DX009 (ip), vehicle: saline + alcohol 112 % of control | [4] 115 % of control | dose: 200.0 mg/kg/injection, schedule: Q01DX009 (ip), vehicle: saline + alcohol 103 % of control | dose: 400.0 mg/kg/injection, schedule: Q01DX009 (ip), vehicle: saline + alcohol 108 % of control

COc1cccc2c1C(=O)c1c(O)c3c(c(O)c1C2=O)C[C@@](O)(C(C)=O)C[C@@H]3OC1CC(N)C(OC2CC(O)C(O)C(C)O2)C(C)O1 (stereo partly drawn)
inactive: dose: 2.25 mg/kg/injection, schedule: Q04DX003 (ip), vehicle: distilled water + Tween-80 113 % of control | dose: 4.5 mg/kg/injection, schedule: Q04DX003 (ip), vehicle: distilled water + Tween-80 113 % of control | dose: 6.25 mg/kg/injection, schedule: Q04DX003 (ip), vehicle: distilled water + Tween-80 112 % of control | dose: 9.0 mg/kg/injection, schedule: Q04DX003 (ip), vehicle: distilled water + Tween-80 123 % of control | dose: 12.5 mg/kg/injection, schedule: Q04DX003 (ip), vehicle: distilled water + Tween-80 112 % of control | dose: 25.0 mg/kg/injection, schedule: Q04DX003 (ip), vehicle: distilled water + Tween-80 119 % of control | dose: 36.0 mg/kg/injection, schedule: Q04DX003 (ip), vehicle: distilled water + Tween-80 123 % of control | dose: 100.0 mg/kg/injection, schedule: Q04DX003 (ip), vehicle: distilled water + Tween-80 118 % of control

N#CCCSC(=S)C(C#N)C(=N)c1ccccc1 (stereo not drawn)
inactive: dose: 25.0 mg/kg/injection, schedule: Q04DX003 (ip), vehicle: Klucel (hydroxypropylcellulose) (HPC) 108 % of control | dose: 50.0 mg/kg/injection, schedule: Q04DX003 (ip), vehicle: Klucel (hydroxypropylcellulose) (HPC) 110 % of control | dose: 100.0 mg/kg/injection, schedule: Q04DX003 (ip), vehicle: Klucel (hydroxypropylcellulose) (HPC) 104 % of control and 92 % of control | dose: 200.0 mg/kg/injection, schedule: Q04DX003 (ip), vehicle: Klucel (hydroxypropylcellulose) (HPC) 92 % of control | dose: 400.0 mg/kg/injection, schedule: Q04DX003 (ip), vehicle: Klucel (hydroxypropylcellulose) (HPC) 96 % of control

CC(=O)OCC12C(=O)CC(C)C3(CC(c4ccoc4)OC3=O)C1CCC(=O)C2(O)CCl (stereo not drawn)
inactive: dose: 0.75 mg/kg/injection, schedule: Q01DX005 (ip), vehicle: saline + alcohol 96 % of control | dose: 1.5 mg/kg/injection, schedule: Q01DX005 (ip), vehicle: saline + alcohol 106 % of control | dose: 3.0 mg/kg/injection, schedule: Q01DX005 (ip), vehicle: saline + alcohol 103 % of control | dose: 6.0 mg/kg/injection, schedule: Q01DX005 (ip), vehicle: saline + alcohol 108 % of control | dose: 12.0 mg/kg/injection, schedule: Q01DX005 (ip), vehicle: saline + alcohol 106 % of control | dose: 12.5 mg/kg/injection, schedule: Q01DX005 (ip), vehicle: saline + Tween-80 + alcohol 90 % of control | dose: 25.0 mg/kg/injection, schedule: Q01DX005 (ip), vehicle: saline + Tween-80 + alcohol 90 % of control | dose: 50.0 mg/kg/injection, schedule: Q01DX005 (ip), vehicle: saline + Tween-80 + alcohol 93 % of control | dose: 150.0 mg/kg/injection, schedule: Q01DX005 (ip), vehicle: saline + Tween-80 + alcohol 100 % of control

CC1(C)OC(=O)C(CCc2ccccn2)(CCc2ccccn2)C(=O)O1
inactive: dose: 12.5 mg/kg/injection, schedule: Q01DX009 (ip), vehicle: saline with Tween-80 113 % of control | [2] 103 % of control | [3] 110 % of control | [4] 114 % of control | dose: 200.0 mg/kg/injection, schedule: Q01DX009 (ip), vehicle: saline with Tween-80 104 % of control

C/C(=N\NC(=S)N(C)C)c1cnccn1
inactive: dose: 12.5 mg/kg/injection, schedule: Q01DX005 (ip), vehicle: saline with Tween-80 102 % of control | dose: 25.0 mg/kg/injection, schedule: Q01DX005 (ip), vehicle: saline with Tween-80 100 % of control | [5] 98 % of control and 101 % of control

C=CC(/C=C\c1ccc(OC2OC(CO)C(O)C(O)C2O)cc1)c1ccc(OC2OC(CO)C(O)C(O)C2O)cc1 (stereo not drawn)
inactive: dose: 60.0 mg/kg/injection, schedule: Q01DX005 (ip), vehicle: saline 97 % of control | dose: 120.0 mg/kg/injection, schedule: Q01DX005 (ip), vehicle: saline 103 % of control | dose: 240.0 mg/kg/injection, schedule: Q01DX005 (ip), vehicle: saline 92 % of control

O=C1C2=C(Nc3cc(Cl)ccc3N2)OC1c1ccccc1Cl (stereo not drawn)
inactive: dose: 60.0 mg/kg/injection, schedule: Q01DX005 (ip), vehicle: Klucel (hydroxypropylcellulose) (HPC) 95 % of control | dose: 120.0 mg/kg/injection, schedule: Q01DX005 (ip), vehicle: Klucel (hydroxypropylcellulose) (HPC) 94 % of control | dose: 240.0 mg/kg/injection, schedule: Q01DX005 (ip), vehicle: Klucel (hydroxypropylcellulose) (HPC) 104 % of control

COc1cc2ccc(CC(=O)NCCc3ccc4c(c3)OCO4)cc2cc1OC
inactive: dose: 100.0 mg/kg/injection, schedule: Q01DX009 (ip), vehicle: Klucel (hydroxypropylcellulose) (HPC) 100 % of control | dose: 200.0 mg/kg/injection, schedule: Q01DX009 (ip), vehicle: Klucel (hydroxypropylcellulose) (HPC) 100 % of control | dose: 400.0 mg/kg/injection, schedule: Q01DX009 (ip), vehicle: Klucel (hydroxypropylcellulose) (HPC) 90 % of control

CCOc1nc(OC)c(Cc2c(OC)nc(OCC)c3c2CCCC3)c2c1CCCC2
inactive: dose: 47.5 mg/kg/injection, schedule: Q01DX005 (ip), vehicle: saline + Tween-80 + alcohol 102 % of control | dose: 95.0 mg/kg/injection, schedule: Q01DX005 (ip), vehicle: saline + Tween-80 + alcohol 90 % of control | dose: 190.0 mg/kg/injection, schedule: Q01DX005 (ip), vehicle: saline + Tween-80 + alcohol 87 % of control

CC(=O)c1c(O)c2c(=O)n(C)c(C)cc2n(C)c1=O
inactive: [1] 100 % of control | dose: 100.0 mg/kg/injection, schedule: Q01DX005 (ip), vehicle: Klucel (hydroxypropylcellulose) (HPC) 100 % of control | dose: 200.0 mg/kg/injection, schedule: Q01DX005 (ip), vehicle: Klucel (hydroxypropylcellulose) (HPC) 98 % of control

COc1ccc(Cc2cc(O)c(OC)cc2O)cc1
inactive: dose: 0.32 mg/kg/injection, schedule: Q01DX009 (ip), vehicle: saline with Tween-80 104 % of control | dose: 0.63 mg/kg/injection, schedule: Q01DX009 (ip), vehicle: saline with Tween-80 107 % of control | dose: 1.25 mg/kg/injection, schedule: Q01DX009 (ip), vehicle: saline with Tween-80 104 % of control | dose: 2.5 mg/kg/injection, schedule: Q01DX009 (ip), vehicle: saline with Tween-80 111 % of control | dose: 5.0 mg/kg/injection, schedule: Q01DX009 (ip), vehicle: saline with Tween-80 100 % of control and 108 % of control | dose: 10.0 mg/kg/injection, schedule: Q01DX009 (ip), vehicle: saline with Tween-80 106 % of control

Cc1ccccc1N=Nc1ccc(N=Nc2ccc(N)nc2N)c(C)c1
inactive: [5] 104 % of control | dose: 100.0 mg/kg/injection, schedule: Q01DX005 (ip), vehicle: saline with Tween-80 110 % of control | dose: 200.0 mg/kg/injection, schedule: Q01DX005 (ip), vehicle: saline with Tween-80 99 % of control
